Assay results: patent US20220387403A1, “COMPOUNDS, COMPOSITIONS AND METHODS FOR TREATING NASH, NAFLD, AND OBESITY” (CVI Pharmaceuticals Limited, priority 2019, published 2022)
Like-named read-outs stand apart in the source and are kept apart here. Values belong to the molecule of their own block, whether it stands above or below them.

Tests used:
[1] = test system: LDLR; experiment: Western blot of LDLR protein in HepG2 cells; format: cell-based, human; details: for LDLR protein levels (in words): 20 μM, 1, 2 and 3 days
Protocol: (§1) Cells were harvested after 1, 2, and 3 days treatment and western blot analysis was conducted using antibodies directed to LDLR and PCSK9. Chicken anti-LDLR was purchased from Abcam, the mouse anti-PCSK9 was purchased from Cayman Chemicals, and anti-pACC was purchased from Cell Signaling.
(§2) To determine whether the stimulatory effects of statins on LDLR protein expression could be enhanced by some new compounds invented herein, HepG2 cells were untreated or treated with a low dose of rosuvastatin (RSV) at 0.3 and 1 uM concentration in the absence or the presence of Compound 127(+), or treated with low concentrations of Compound 127(+) alone for 2 days. Western blot analysis was conducted to examine LDLR and PCSK9 protein levels. Compound 127(+) is the single enantiomer of compound 127 with a positive optical rotation. […] Furthermore, the inducing effects of RSV on PCSK9 protein levels were antagonized by compound 127(+).
(§3) Chicken anti-LDLR was purchased from Abcam and the mouse anti-PCSK9 was purchased from Cayman Chemicals. HepG2 cells cultured in 60-mm dishes were incubated overnight in medium containing 0.5% fetal bovine serum prior to the addition of compounds at 20 uM concentration for 1-3 days. Total cell lysate was isolated and 50 μg of protein was separated on SDS-PAGE and transferred to nitrocellulose membrane for immunoblotting with anti-LDLR, anti-PCSK9, and anti-p-ACC.

[2] = test system: ACC; experiment: Western blot of phosphorylated ACC in HepG2 cells; format: cell-based, human; details: 20 μM, 1, 2 and 3 days
Protocol: as §1, §3

[3] = test system: hyperlipidemic rabbits; experiment: Lipid lowering effects and blood chemistry in hyperlipidemic rabbits; details: for serum total cholesterol level: in mM
Protocol: (§4) Forty-two male Japanese rabbits were fed the cholesterol enriched rabbit diet for two weeks to induce hypercholesterolemia. […] Serum samples were collected at day 0 (before the drug treatment) and day 7. […] All tested animals were sacrificed at the end of a total of 14 days treatment and serum samples were analyzed for TC, LDL-C, TG, and HDL-C. In addition to lipid profiles, a number of biochemical parameters were also analyzed to aseesee the effects of drug treatments on liver function, muscle function, kidney function, and heart function.

[4] = test system: PCSK9; experiment: Western blot of PCSK9 protein in HepG2 cells; format: cell-based, human; details: for expression of PCSK9 protein (in words): 20 μM, 1, 2 and 3 days
Protocol: as §1, §2, §3

[5] = test system: hyperlipidemic rabbits; details: rabbit, in vivo
Protocol: as §4

[6] = test system: Male Wister rats; experiment: Lipid lowering effects in Wister rats under a high fat and high cholesterol diet; format: in vivo, rat; details: 75 mg/kg daily oral
Protocol: Male Wister rats were used as an animal model to examine the in vivo effects of (14R, 13S)-CRDL in plasma lipid levels.
In one experiment, 18 Wister male rats under a high fat and high cholesterol diet were divided into 2 groups. One group was given (14R, 13S)-CRDL hydrochloride salt orally at a daily dose of 75 mg/kg by an orogastric tube for 4 weeks, and the control group received daily treatment of equal amount of vehicle (0.1 M sodium phosphate, pH 3.5). Serum lipid levels were measured weekly.
At the end of treatment, Rats were sacrificed and blood and sera were collected to measure several critical parameters for liver function and kidney function. […] Kidney function and blood glucose level were not changed by the treatment.

[7] = test system: Male Wister rats; experiment: Food intake and body weight in Wister rats under a high fat and high cholesterol diet; format: in vivo, rat; details: 4-week treatment
Protocol: The food intake and body weight gains were measured every week during the 4-week treatment period. […] In the first week, the amount of food consumed was decreased in CRDL-treated group. […] The ability of CRDL to activate AMPK signaling pathway to increase energy expenditure and to reduce fat accumulation likely contributes to this weight reducing effect.

[8] = after 14 days of drug treatment, mean, n = 6
[9] = treatment day 0 (before the drug treatment), mean ± SD, n = 6
[10] = treatment day 4, 128(+)/128(−) 30 mg/kg, SMV/ATV 3 mg/kg once a day oral gavage
[11] = treatment day 7, 128(+)/128(−) 30 mg/kg, SMV/ATV 3 mg/kg once a day oral gavage
[12] = treatment day 10, from day 7 128(+)/128(−) 60 mg/kg, SMV/ATV 10 mg/kg
[13] = treatment day 14, from day 7 128(+)/128(−) 60 mg/kg, SMV/ATV 10 mg/kg
[14] = with rosuvastatin 0.3 and 1 uM, 2 days

Structure (SMILES): COc1ccc2c(c1)CCN1Cc3c(ccc(OC)c3OS(=O)(=O)c3cccc(F)c3)CC21 (stereo not drawn) [128(+), 3,10-Dimethxoy-5,6,7,8,13,13a-hexahydroisoquinolino[2,1-b]isoquinolin-9-yl 3-fluorobenzenesulfonate]
LDLR protein levels (in words) [1]: effectively increased
ACC phosphorylation (in words) [2]: induced
ALP [3, 8]: 165.2 IU/L
ALT [3, 8]: 68.7 IU/L
AST [3, 8]: 20.8 IU/L
CK [3, 8]: 1172.3 U/L
CREA [3, 8]: 97.2 µmol/L
GLU [3, 8]: 7.9 mmol/L
HDL-C [3, 8]: 3.6 mmol/L
LDH [3, 8]: 47.7 IU/L
LDL-C [3, 8]: 29.7 mmol/L
TC [3, 8]: 34.2 mmol/L
TG [3, 8]: 1.0 mmol/L
body weight [3, 8]: 2.6 kg
serum total cholesterol level [3, 9]: 28.6 ± 6.7
serum total cholesterol level [3, 10]: 31.9 ± 7.5
serum total cholesterol level [3, 11]: 33.9 ± 7.2
serum total cholesterol level [3, 12]: 33.8 ± 7.8
serum total cholesterol level [3, 13]: 34.2 ± 7.4
expression of PCSK9 protein (in words) [4]: strongly inhibited

Structure (SMILES): COc1cc2c(cc1OC)C1Cc3ccc(OC)c(OS(=O)(=O)c4cccc(F)c4)c3CN1CC2 (stereo not drawn) [127(+), 2,3,10-Trimethoxy-5,6,7,8,13,13a-hexahydroisoquinolino[2,1-b]isoquinolin-9-yl 3-fluorobenzenesulfonate]
LDLR protein levels (in words) [1]: effectively increased
stimulatory effects of statins on LDLR protein expression, combination (in words) [1, 14]: further improved
ACC phosphorylation (in words) [2]: induced
expression of PCSK9 protein (in words) [4]: strongly inhibited
inducing effects of RSV on PCSK9 protein levels, combination (in words) [4, 14]: antagonized

Structure (SMILES): COc1ccc2c(c1)CCN1Cc3c(ccc(OC)c3OS(=O)(=O)c3cccc(F)c3)CC21 (stereo not drawn) [128(−), 3,10-Dimethxoy-5,6,7,8,13,13a-hexahydroisoquinolino[2,1-b]isoquinolin-9-yl 3-fluorobenzenesulfonate]
LDLR protein levels (in words) [1]: effectively increased
ACC phosphorylation (in words) [2]: induced
TC and LDL-C reduction (in words) ([3]; 14 days treatment): strong TC and LDL-C reduction
HDL-C [3, 8]: 3.5 mmol/L
LDL-C [3, 8]: 24.4 mmol/L
TC [3, 8]: 29.7 mmol/L
TG [3, 8]: 0.9 mmol/L
serum total cholesterol level [3, 9]: 28.5 ± 6.3
serum total cholesterol level [3, 10]: 29.9 ± 8.0
serum total cholesterol level [3, 11]: 29.0 ± 7.9
serum total cholesterol level [3, 12]: 27.9 ± 5.2
serum total cholesterol level [3, 13]: 29.7 ± 4.9
expression of PCSK9 protein (in words) [4]: strongly inhibited
ALP [5]: 155.5 IU/L
ALT [5]: 50.2 IU/L
AST [5]: 20.8 IU/L
CK [5]: 997.5 U/L
CREA [5]: 105.2 µmol/L
GLU [5]: 7.9 mmol/L
LDH [5]: 50.3 IU/L
adverse effect / toxicities (in words) [5]: absence of any adverse effect

Kidney function and blood glucose level ([6]; end of 4-week treatment): not changed
Structure (SMILES): COc1cc2c(cc1OC)[C@H]1[C@@H](C)c3ccc(OC)c(OC)c3CN1CC2 [CRDL, corydaline]
adverse effects during the entire treatment ([6]; 4 weeks): No any adverse effects
serum levels of AST and ALT vs control group ([6]; end of 4-week treatment): statistically lower
LDL-c level, of control ([6]; hydrochloride salt, 4 weeks): 25.6%
LDL-c level, of day 0 ([6]; hydrochloride salt, 4 weeks): 22.4%
TC compared to the control group ([6]; hydrochloride salt, 4 weeks): 33.8%
TC, of the pretreatment level ([6]; hydrochloride salt, 4 weeks): 33.0%
TG level, of the control ([6]; hydrochloride salt, 4 weeks): 29%
TG level, of the pretreatment level (day 0) ([6]; hydrochloride salt, 4 weeks): 27%
body weight [7]: maintained constant
